{
  "source": "patent US9110059B2",
  "about": "“Bio-pin” (Industry-Academic Cooperation Foundation, Yonsei University, priority 2011, dated 2015)",
  "type_in_all_cases": "cell-based",
  "key": {"[1]": {"test_system": "rat mesenchymal stem cells attached to H9c2 cells", "assay": "Adhesion of bio-pin-treated mesenchymal stem cells to H9c2 cells (intercellular bond number)", "settings": "stem cells treated with 1 μM bio-pin for an hour, kept 10 minutes on H9c2 cells; fluorescence microscope and spectrometer", "method": "Rat cardiac myoblast H9c2 cells were incubated until a 4-well chamber (Lab-Tek chamber slide) was 100% filled with the H9c2 cells. Thereafter, the H9c2 cells were treated with a cell-labeled dye (Vybrant™ DiI) at a final concentration of 5 μl/mL, reacted at 37° C. for 30 minutes in a CO2 incubator, and then washed three times with PBS.\nAlso, rat mesenchymal stem cells were cultured in a MesenPRO (Gibco, USA) medium in a petri dish. Thereafter, trypsin-EDTA and a trypsin-neutralizing solution were added at a ratio of 1:1, and then reacted for 5 minutes to detach the stem cells. The stem cells were treated with a cell-modifying dye (Vybrant™ DiO, Invitrogen, USA) at a final concentration of 5 μl/mL, reacted at 37° C. for 30 minutes in a CO2 incubator, washed three times with PBS, and then centrifuged for 3 minutes at a rotary speed of 1,200 rpm to be prepared.\nThe prepared stem cells were treated with the peptide-based complex previously prepared in Example 1 or 2 at a final concentration of 1 μM, reacted at 37° C. for an hour in a CO2 incubator while stirring right and left, washed three times with PBS, and then centrifuged to obtain a cell pellet. […] To quantify the MSCs attached to the H9c2 cells, a cell medium was removed off, and 200 μl of 0.1% Triton X-100 was added, and removed off after 5 minutes."}, "[2]": {"test_system": "intercellular cell adhesion molecule-1 (ICAM-1)", "assay": "Immunoblotting of HUVEC lysate with anti-ICAM-1 antibody", "settings": "TNF-alpha 10 ng/mL for 24 hours", "method": "(§1) HUVECs (5×10^4 cells/well) were cultured in an EGM medium (Lonza, USA) on a 24-well plate, starved for 4 hours in a 0.5% EBM medium, and treated with TNF-alpha (10 ng/mL) for 24 hours. Thereafter, the HUVECs were treated with a CellMask™ plasma membrane stain (Invitrogen, USA) at a final concentration of 5 μg/mL, reacted at 37° C. for 30 minutes in a CO2 incubator, and then washed three times with PBS.\n(§2) Also, to determine whether the HUVECs were suitably stimulated with TNF-alpha, immunoblotting was performed using anti-ICAM-1 and anti-VCAM-1 antibodies."}, "[3]": {"test_system": "vascular cell adhesion molecule-1 (VCAM-1)", "assay": "Immunoblotting of HUVEC lysate with anti-VCAM-1 antibody", "settings": "TNF-alpha 10 ng/mL for 24 hours", "method": "as §1, §2"}, "[4]": {"test_system": "rat mesenchymal stem cells (MSCs) attached to H9c2 cells", "assay": "Adhesion of BPin-RGD-treated mesenchymal stem cells to H9c2 cells (intercellular bond number)", "settings": "stem cells treated with 100 nM bio-pin for an hour, kept 10 minutes on H9c2 cells; fluorescence 484 nm/501 nm", "method": "Rat cardiac myoblast H9c2 cells were incubated until a 4-well chamber (Lab-Tek chamber slide) was 100% filled with the H9c2 cells. Thereafter, the H9c2 cells were treated with a CellMask™ plasma membrane stain (Invitrogen, USA) at a final concentration of 5 μl/mL, reacted at 37° C. for 30 minutes in a CO2 incubator, and then washed three times with PBS.\nAlso, rat mesenchymal stem cells (MSCs) were cultured in a MesenPRO (Gibco, USA) medium in a petri dish. Thereafter, trypsin-EDTA and a trypsin-neutralizing solution were added at a ratio of 1:1, and then reacted for 5 minutes to detach the stem cells. The stem cells were treated with a cell-modifying dye (Vybrant™ DiO, Invitrogen, USA) at a final concentration of 2 μl/mL, reacted at 37° C. for 30 minutes in a CO2 incubator, washed three times with PBS, and then centrifuged for 3 minutes at a rotary speed of 1,200 rpm.\nThe prepared stem cells were treated with the bio-pin prepared in Example 3 at a final concentration of 100 nM, reacted at 37° C. for an hour in a CO2 incubator while stirring right and left, washed three times with PBS, and then centrifuged to obtain a cell pellet. Subsequently, the cell pellet was re-suspended in 400 μl of a DMEM medium supplemented with 10% FBS. […] To quantify the MSCs attached to the H9c2 cells, 200 μl of 0.1% Triton X-100 was added, and removed off after 5 minutes."}},
  "data": [
    {"substance": "BPin-55: bio-pin in which TAT cell-penetrating peptides are fused with N- and C-terminus of 31-amino-acid OPRD first transmembrane domain peptide (YGRKKRRQRRRGSLAIAITALYSAVCAVGLLGNVLVMFGIVRYTYGRKKRRQRRR; BPin-55 TAT-OPRD-TAT)", "values": [
      {"measurement": "number of intercellular bonds (FIGS. 5 and 6)", "setting": "[1]", "result": "remarkably increased"}
    ]},
    {"substance": "TNF-alpha", "values": [
      {"measurement": "ICAM-1 expression in HUVECs (FIG. 9)", "setting": "[2]", "result": "increasingly expressed"},
      {"measurement": "VCAM-1 expression in HUVECs (FIG. 9)", "setting": "[3]", "result": "increasingly expressed"}
    ]},
    {"substance": "BPin-RGD: bio-pin with adhesive peptide (GRGDSP) at N-terminus and TAT cell-penetrating peptide at C-terminus of the 31-amino-acid OPRD peptide (GRGDSPGSLAIAITALYSAVCAVGLLGNVLVMFGIVRYTYGRKKRRQRRR; BPin-RGD RGD-OPRD-TAT)", "values": [
      {"measurement": "number of intercellular bonds (FIG. 7)", "setting": "[4]", "result": "remarkably increased"}
    ]}
  ]
}
